Settings: Liquid

CCCCCCn1cc[n+](C)c1.F[P-](F)(F)(F)(F)F [1-hexyl-3-methylimidazolium hexafluorophosphate]
Settings | mass density [kg/m3]
293.15 K, 101.33 kPa, Vibrating tube method | 1297
312.9 K, 10000 kPa, Bellows volumetry | 1287
312.9 K, 20000 kPa, Bellows volumetry | 1292
312.9 K, 30000 kPa, Bellows volumetry | 1298
312.9 K, 40000 kPa, Bellows volumetry | 1303
312.9 K, 50000 kPa, Bellows volumetry | 1308
312.9 K, 60000 kPa, Bellows volumetry | 1313
312.9 K, 70000 kPa, Bellows volumetry | 1318
312.9 K, 80000 kPa, Bellows volumetry | 1322
312.9 K, 90000 kPa, Bellows volumetry | 1327
312.9 K, 100000 kPa, Bellows volumetry | 1331
312.9 K, 110000 kPa, Bellows volumetry | 1335
312.9 K, 120000 kPa, Bellows volumetry | 1339
312.9 K, 130000 kPa, Bellows volumetry | 1343
312.9 K, 140000 kPa, Bellows volumetry | 1347
312.9 K, 150000 kPa, Bellows volumetry | 1351
312.9 K, 160000 kPa, Bellows volumetry | 1355
312.9 K, 170000 kPa, Bellows volumetry | 1358
312.9 K, 180000 kPa, Bellows volumetry | 1362
312.9 K, 190000 kPa, Bellows volumetry | 1366
312.9 K, 200000 kPa, Bellows volumetry | 1369
313.15 K, 101.33 kPa, Vibrating tube method | 1280.7
332.6 K, 10000 kPa, Bellows volumetry | 1271
332.6 K, 20000 kPa, Bellows volumetry | 1277
332.6 K, 30000 kPa, Bellows volumetry | 1283
332.6 K, 40000 kPa, Bellows volumetry | 1289
332.6 K, 50000 kPa, Bellows volumetry | 1294
332.6 K, 60000 kPa, Bellows volumetry | 1299
332.6 K, 70000 kPa, Bellows volumetry | 1304
332.6 K, 80000 kPa, Bellows volumetry | 1309
332.6 K, 90000 kPa, Bellows volumetry | 1313
332.6 K, 100000 kPa, Bellows volumetry | 1318
332.6 K, 110000 kPa, Bellows volumetry | 1322
332.6 K, 120000 kPa, Bellows volumetry | 1326
332.6 K, 130000 kPa, Bellows volumetry | 1330
332.6 K, 140000 kPa, Bellows volumetry | 1334
332.6 K, 150000 kPa, Bellows volumetry | 1338
332.6 K, 160000 kPa, Bellows volumetry | 1342
332.6 K, 170000 kPa, Bellows volumetry | 1346
332.6 K, 180000 kPa, Bellows volumetry | 1350
332.6 K, 190000 kPa, Bellows volumetry | 1353
332.6 K, 200000 kPa, Bellows volumetry | 1357
333.15 K, 101.33 kPa, Vibrating tube method | 1265.1
352.7 K, 10000 kPa, Bellows volumetry | 1256
352.7 K, 20000 kPa, Bellows volumetry | 1262
352.7 K, 30000 kPa, Bellows volumetry | 1268
352.7 K, 40000 kPa, Bellows volumetry | 1274
352.7 K, 50000 kPa, Bellows volumetry | 1280
352.7 K, 60000 kPa, Bellows volumetry | 1285
352.7 K, 70000 kPa, Bellows volumetry | 1290
352.7 K, 80000 kPa, Bellows volumetry | 1295
352.7 K, 90000 kPa, Bellows volumetry | 1300
352.7 K, 100000 kPa, Bellows volumetry | 1305
352.7 K, 110000 kPa, Bellows volumetry | 1309
352.7 K, 120000 kPa, Bellows volumetry | 1314
352.7 K, 130000 kPa, Bellows volumetry | 1318
352.7 K, 140000 kPa, Bellows volumetry | 1322
352.7 K, 150000 kPa, Bellows volumetry | 1326
352.7 K, 160000 kPa, Bellows volumetry | 1330
352.7 K, 170000 kPa, Bellows volumetry | 1334
352.7 K, 180000 kPa, Bellows volumetry | 1338
352.7 K, 190000 kPa, Bellows volumetry | 1342
352.7 K, 200000 kPa, Bellows volumetry | 1345
353.15 K, 101.33 kPa, Vibrating tube method | 1249.8
372.9 K, 10000 kPa, Bellows volumetry | 1241
372.9 K, 20000 kPa, Bellows volumetry | 1248
372.9 K, 30000 kPa, Bellows volumetry | 1254
372.9 K, 40000 kPa, Bellows volumetry | 1260
372.9 K, 50000 kPa, Bellows volumetry | 1266
372.9 K, 60000 kPa, Bellows volumetry | 1271
372.9 K, 70000 kPa, Bellows volumetry | 1277
372.9 K, 80000 kPa, Bellows volumetry | 1282
372.9 K, 90000 kPa, Bellows volumetry | 1287
372.9 K, 100000 kPa, Bellows volumetry | 1292
372.9 K, 110000 kPa, Bellows volumetry | 1296
372.9 K, 120000 kPa, Bellows volumetry | 1301
372.9 K, 130000 kPa, Bellows volumetry | 1306
372.9 K, 140000 kPa, Bellows volumetry | 1310
372.9 K, 150000 kPa, Bellows volumetry | 1314
372.9 K, 160000 kPa, Bellows volumetry | 1318
372.9 K, 170000 kPa, Bellows volumetry | 1322
372.9 K, 180000 kPa, Bellows volumetry | 1326
372.9 K, 190000 kPa, Bellows volumetry | 1330
372.9 K, 200000 kPa, Bellows volumetry | 1334
393 K, 10000 kPa, Bellows volumetry | 1226
393 K, 20000 kPa, Bellows volumetry | 1233
393 K, 30000 kPa, Bellows volumetry | 1240
393 K, 40000 kPa, Bellows volumetry | 1246
393 K, 50000 kPa, Bellows volumetry | 1252
393 K, 60000 kPa, Bellows volumetry | 1258
393 K, 70000 kPa, Bellows volumetry | 1264
393 K, 80000 kPa, Bellows volumetry | 1269
393 K, 90000 kPa, Bellows volumetry | 1274
393 K, 100000 kPa, Bellows volumetry | 1279
393 K, 110000 kPa, Bellows volumetry | 1284
393 K, 120000 kPa, Bellows volumetry | 1289
393 K, 130000 kPa, Bellows volumetry | 1293
393 K, 140000 kPa, Bellows volumetry | 1298
393 K, 150000 kPa, Bellows volumetry | 1302
393 K, 160000 kPa, Bellows volumetry | 1306
393 K, 170000 kPa, Bellows volumetry | 1310
393 K, 180000 kPa, Bellows volumetry | 1314
393 K, 190000 kPa, Bellows volumetry | 1318
393 K, 200000 kPa, Bellows volumetry | 1322
412.9 K, 10000 kPa, Bellows volumetry | 1211
412.9 K, 20000 kPa, Bellows volumetry | 1219
412.9 K, 30000 kPa, Bellows volumetry | 1226
412.9 K, 40000 kPa, Bellows volumetry | 1232
412.9 K, 50000 kPa, Bellows volumetry | 1239
412.9 K, 60000 kPa, Bellows volumetry | 1245
412.9 K, 70000 kPa, Bellows volumetry | 1251
412.9 K, 80000 kPa, Bellows volumetry | 1256
412.9 K, 90000 kPa, Bellows volumetry | 1262
412.9 K, 100000 kPa, Bellows volumetry | 1267
412.9 K, 110000 kPa, Bellows volumetry | 1272
412.9 K, 120000 kPa, Bellows volumetry | 1277
412.9 K, 130000 kPa, Bellows volumetry | 1282
412.9 K, 140000 kPa, Bellows volumetry | 1286
412.9 K, 150000 kPa, Bellows volumetry | 1291
412.9 K, 160000 kPa, Bellows volumetry | 1295
412.9 K, 170000 kPa, Bellows volumetry | 1299
412.9 K, 180000 kPa, Bellows volumetry | 1303
412.9 K, 190000 kPa, Bellows volumetry | 1307
412.9 K, 200000 kPa, Bellows volumetry | 1311
432.8 K, 10000 kPa, Bellows volumetry | 1197
432.8 K, 20000 kPa, Bellows volumetry | 1205
432.8 K, 30000 kPa, Bellows volumetry | 1212
432.8 K, 40000 kPa, Bellows volumetry | 1219
432.8 K, 50000 kPa, Bellows volumetry | 1226
432.8 K, 60000 kPa, Bellows volumetry | 1232
432.8 K, 70000 kPa, Bellows volumetry | 1238
432.8 K, 80000 kPa, Bellows volumetry | 1244
432.8 K, 90000 kPa, Bellows volumetry | 1250
432.8 K, 100000 kPa, Bellows volumetry | 1255
432.8 K, 110000 kPa, Bellows volumetry | 1260
432.8 K, 120000 kPa, Bellows volumetry | 1265
432.8 K, 130000 kPa, Bellows volumetry | 1270
432.8 K, 140000 kPa, Bellows volumetry | 1275
432.8 K, 150000 kPa, Bellows volumetry | 1279
432.8 K, 160000 kPa, Bellows volumetry | 1284
432.8 K, 170000 kPa, Bellows volumetry | 1288
432.8 K, 180000 kPa, Bellows volumetry | 1292
432.8 K, 190000 kPa, Bellows volumetry | 1297
432.8 K, 200000 kPa, Bellows volumetry | 1301
452.5 K, 10000 kPa, Bellows volumetry | 1183
452.5 K, 20000 kPa, Bellows volumetry | 1191
452.5 K, 30000 kPa, Bellows volumetry | 1199
452.5 K, 40000 kPa, Bellows volumetry | 1206
452.5 K, 50000 kPa, Bellows volumetry | 1213
452.5 K, 60000 kPa, Bellows volumetry | 1219
452.5 K, 70000 kPa, Bellows volumetry | 1226
452.5 K, 80000 kPa, Bellows volumetry | 1232
452.5 K, 90000 kPa, Bellows volumetry | 1237
452.5 K, 100000 kPa, Bellows volumetry | 1243
452.5 K, 110000 kPa, Bellows volumetry | 1248
452.5 K, 120000 kPa, Bellows volumetry | 1254
452.5 K, 130000 kPa, Bellows volumetry | 1259
452.5 K, 140000 kPa, Bellows volumetry | 1263
452.5 K, 150000 kPa, Bellows volumetry | 1268
452.5 K, 160000 kPa, Bellows volumetry | 1273
452.5 K, 170000 kPa, Bellows volumetry | 1277
452.5 K, 180000 kPa, Bellows volumetry | 1282
452.5 K, 190000 kPa, Bellows volumetry | 1286
452.5 K, 200000 kPa, Bellows volumetry | 1290
472.3 K, 10000 kPa, Bellows volumetry | 1169
472.3 K, 20000 kPa, Bellows volumetry | 1177
472.3 K, 30000 kPa, Bellows volumetry | 1185
472.3 K, 40000 kPa, Bellows volumetry | 1193
472.3 K, 50000 kPa, Bellows volumetry | 1200
472.3 K, 60000 kPa, Bellows volumetry | 1207
472.3 K, 70000 kPa, Bellows volumetry | 1213
472.3 K, 80000 kPa, Bellows volumetry | 1220
472.3 K, 90000 kPa, Bellows volumetry | 1226
472.3 K, 100000 kPa, Bellows volumetry | 1231
472.3 K, 110000 kPa, Bellows volumetry | 1237
472.3 K, 120000 kPa, Bellows volumetry | 1242
472.3 K, 130000 kPa, Bellows volumetry | 1247
472.3 K, 140000 kPa, Bellows volumetry | 1253
472.3 K, 150000 kPa, Bellows volumetry | 1257
472.3 K, 160000 kPa, Bellows volumetry | 1262
472.3 K, 170000 kPa, Bellows volumetry | 1267
472.3 K, 180000 kPa, Bellows volumetry | 1271
472.3 K, 190000 kPa, Bellows volumetry | 1276
472.3 K, 200000 kPa, Bellows volumetry | 1280

— the NIST ThermoML archive (doi:10.1021/je800224k)
